Experimental data as given in paper PMC7765920 (Molecules, 2020).
Read-outs that look alike come from different tables or passages of the source. Marks after values point to notes of the source that are not given here.

Experiments:
Type in all cases: biochemical
[1] = target: T1, GST-CLK1cat (amino acids 141–484 of human CLK1) (Homo sapiens, UniProt P49759); assay: Kinase-GLO luminescent assay of CLK1 catalytic activity; conditions: for remaining activity at 1 µM: read-out: CLK1 residual activity
T1 construct: containing amino acids 141–484 of human CLK1; made in house; host or cells: E. coli
Method: (§1) Optimization of the compounds, however, aimed predominantly at elimination of MAO-A-inhibitory activity while keeping DYRK1A inhibitory potency, and not at achieving high selectivity for DYRK1A over CLK1. The tests were performed as described by us before in detail. Due to the very large number of test compounds (more than 60), a first screening was performed at a single inhibitor concentration of 1 µM.
(§2) Inhibitors were dissolved in DMSO at a concentration of 10 mM and stored at […]. Working solutions were prepared to achieve a final concentration of 1 µM in the enzyme assays.
(§3) Recombinant kinases were purified from E. coli as GST (glutathione S-transferase) fusion constructs by affinity adsorption to glutathione-Sepharose. […] Catalytic activity of the kinases was measured with the help of the Kinase-GLO^TM Luminescent Assay from Promega. Assays were performed in a total volume of 10 μL in kinase buffer (25 mM Hepes pH 7.4, 0.5 mM DTT, 5 mM MgCl2, 5 μM ATP) with appropriate peptide substrates (20 μM DYRKtide for the DYRKs and 100 μM DYRKtide for HIPK2, […]; or 100 μM RS peptide for CLK1, […]). Kinases amounts in the assays were adjusted so that approximately 90% of the ATP in the assay was consumed in control samples without inhibitor. Kinase reactions were incubated at room temperature for 30 min before 10 μL Kinase-GLO reagent was added for luminometric measurement of the ATP that was not consumed by the kinases. After incubation at room temperature for an additional 10 min, luminescence was recorded for 1 s (Berthold Orion Microplate Luminometer). ATP consumption in the control samples without inhibitor was set as 100% catalytic activity, and the inhibitory effects of the test compounds were calculated relative to this value.

[2] = target: T2, GST-DYRK1A-ΔC (amino acids 1–499 of rat DYRK1A) (Rattus norvegicus, UniProt Q63470); assay: Kinase-GLO luminescent assay of DYRK1A catalytic activity; conditions: for remaining activity at 1 µM: read-out: DYRK1A residual activity
T2 construct: containing amino acids 1–499 of rat DYRK1A; made in house; host or cells: E. coli
Method: as §1, §2, §3

human recombinant MAO-A = target: T3, human recombinant MAO-A (Homo sapiens, UniProt P21397); assay: MAO-GLO luminescence assay of MAO-A catalytic activity; conditions: for remaining activity at 1 µM: read-out: MAO-A residual activity
T3 sequence (P21397 1-527): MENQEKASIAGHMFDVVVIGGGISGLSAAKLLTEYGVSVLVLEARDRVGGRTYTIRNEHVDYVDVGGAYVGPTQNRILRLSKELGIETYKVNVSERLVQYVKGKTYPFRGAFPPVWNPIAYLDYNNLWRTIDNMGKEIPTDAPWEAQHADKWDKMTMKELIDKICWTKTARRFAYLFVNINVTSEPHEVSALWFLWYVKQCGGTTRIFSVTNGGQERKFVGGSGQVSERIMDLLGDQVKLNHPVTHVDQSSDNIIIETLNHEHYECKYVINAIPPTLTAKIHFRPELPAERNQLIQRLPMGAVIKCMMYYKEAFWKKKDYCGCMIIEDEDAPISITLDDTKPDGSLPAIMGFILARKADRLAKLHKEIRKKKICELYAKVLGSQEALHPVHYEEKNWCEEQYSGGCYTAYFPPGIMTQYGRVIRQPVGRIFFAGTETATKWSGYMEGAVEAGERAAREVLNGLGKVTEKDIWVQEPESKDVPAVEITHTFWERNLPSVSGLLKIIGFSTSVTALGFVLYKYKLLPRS
Method: as §1, §2
Catalytic activity of monoamine oxidase A (MAO-A) was measured by using the luminescence-based MAO-GLO^TM Assay from Promega. Recombinant MAO-A converts a luminogenic MAO substrate into luciferin, which is, in turn, luminometrically detected in a luciferase reaction. The amount of light produced is directly proportional to MAO activity. […] Inhibitory effects of the tested compounds were calculated relative to the activity of control reactions that were run in the absence of inhibitors.

[3] = 1 µM inhibitor concentration, residual activity relative to control without inhibitor

T1 sequence (P49759 141-484): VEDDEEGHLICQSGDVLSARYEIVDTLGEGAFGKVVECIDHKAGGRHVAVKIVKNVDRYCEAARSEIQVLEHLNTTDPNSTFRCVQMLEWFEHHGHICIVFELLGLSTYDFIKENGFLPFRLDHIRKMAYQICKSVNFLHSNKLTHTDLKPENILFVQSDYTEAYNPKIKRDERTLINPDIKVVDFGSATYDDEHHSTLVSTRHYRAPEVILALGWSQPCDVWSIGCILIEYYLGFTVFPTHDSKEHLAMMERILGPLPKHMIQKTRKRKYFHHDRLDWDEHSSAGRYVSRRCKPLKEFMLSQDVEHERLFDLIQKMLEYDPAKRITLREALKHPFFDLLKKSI

Compound: COc1ccc2c3ccnc(C)c3n(CCCc3ccccc3)c2c1 [AnnH38, 7-Methoxy-1-methyl-9-(3-phenylpropyl)-9H-pyrido[3,4-b]indole]
- remaining activity at 1 µM [1, 3]: 31%
- remaining activity at 1 µM [2, 3]: 12%
- remaining activity at 1 µM (human recombinant MAO-A; [3]): 127%

Compound: N#CCn1c2c(Br)nccc2c2ccc(Cl)c(Cl)c21 [AnnH79, 2-(1-Bromo-7,8-dichloro-9H-pyrido[3,4-b]indol-9-yl)-acetonitrile]
- remaining activity at 1 µM [1, 3]: 88%
- remaining activity at 1 µM [2, 3]: 93%
- remaining activity at 1 µM (human recombinant MAO-A; [3]): 143%

Compound: CCCCn1c2cc(OC)c(Cl)cc2c2ccnc(C)c21 [AnnH14, 9-Butyl-6-chloro-7-methoxy-1-methyl-9H-pyrido[3,4-b]indole]
- remaining activity at 1 µM [1, 3]: 62%
- remaining activity at 1 µM [2, 3]: 94%
- remaining activity at 1 µM (human recombinant MAO-A; [3]): 56%

Compound: C#CCn1c2c(Br)nccc2c2ccc(Cl)c(Cl)c21 [AnnH80, 1-Bromo-7,8-dichloro-9-(prop-2-yn-1-yl)-9H-pyrido[3,4-b]indole]
- remaining activity at 1 µM [1, 3]: 84%
- remaining activity at 1 µM [2, 3]: 95%
- remaining activity at 1 µM (human recombinant MAO-A; [3]): 123%

Compound: Cc1nccc2c1C(=O)c1cc(O)ccc1-2 [AnnHT6, 7-Hydroxy-1-methyl-9H-indeno-[2,1-c]pyridin-9-one]
- remaining activity at 1 µM [1, 3]: 27%
- remaining activity at 1 µM [2, 3]: 37%
- remaining activity at 1 µM (human recombinant MAO-A; [3]): 46%

Compound: COc1ccc2c3ccnc(C)c3n(C/C=C/c3ccccc3)c2c1 [AnnH22, 7-Methoxy-1-methyl-9-((E)-3-phenylallyl)-9H-pyrido[3,4-b]indole]
- remaining activity at 1 µM [1, 3]: 15%
- remaining activity at 1 µM [2, 3]: 3%
- remaining activity at 1 µM (human recombinant MAO-A; [3]): 39%

Compound: COc1ccc2c3ccnc(C)c3n(CC(=O)OC(C)C)c2c1 [AnnH27, Isopropyl 2-(7-methoxy-1-methyl-9H-pyrido[3,4-b]indol-9-yl)acetate]
- remaining activity at 1 µM [1, 3]: 79%
- remaining activity at 1 µM [2, 3]: 4%
- remaining activity at 1 µM (human recombinant MAO-A; [3]): 72%

Compound: CCc1nccc2c1[nH]c1cc(OC)ccc12 [AnnH89, 1-Ethyl-7-methoxy-9H-pyrido[3,4-b]indole]
- remaining activity at 1 µM [1, 3]: 7%
- remaining activity at 1 µM [2, 3]: 37%
- remaining activity at 1 µM (human recombinant MAO-A; [3]): 34%

Compound: COc1ccc2c(c1)C(=O)c1c-2ccnc1C [AnnHT2, 7-Methoxy-1-methyl-9H-indeno-[2,1-c]pyridin-9-one]
- remaining activity at 1 µM [1, 3]: 54%
- remaining activity at 1 µM [2, 3]: 55%
- remaining activity at 1 µM (human recombinant MAO-A; [3]): 15%

Compound: CCOC(=O)CCn1c2cc(OC)ccc2c2ccnc(C)c21 [AnnH32, Ethyl 3-(7-Methoxy-1-methyl-9H-pyrido[3,4-b]indol-9-yl)propanoate]
- remaining activity at 1 µM [1]: 44%
- remaining activity at 1 µM [2]: 12%
- remaining activity at 1 µM (human recombinant MAO-A): 105%

Compound: COc1ccc2c3ccnc(C)c3n(CCC#N)c2c1 [AnnH42, 3-(7-Methoxy-1-methyl-9H-pyrido[3,4-b]indol-9-yl)propanenitrile]
- remaining activity at 1 µM [1, 3]: 44%
- remaining activity at 1 µM [2, 3]: 22%
- remaining activity at 1 µM (human recombinant MAO-A; [3]): 114%

Compound: CCCCn1c2c(C)nccc2c2ccc(OC)c(Cl)c21 [AnnH11, 9-Butyl-8-chloro-7-methoxy-1-methyl-9H-pyrido[3,4-b]indole]
- remaining activity at 1 µM [1, 3]: 60%
- remaining activity at 1 µM [2, 3]: 104%
- remaining activity at 1 µM (human recombinant MAO-A; [3]): 4%

Compound: Clc1ccc2c([nH]c3c(Br)nccc32)c1Cl [AnnH52, 1-Bromo-7,8-dichloro-9H-pyrido[3,4-b]indole]
- remaining activity at 1 µM [1, 3]: 45%
- remaining activity at 1 µM [2, 3]: 36%
- remaining activity at 1 µM (human recombinant MAO-A; [3]): 118%

Compound: CCOC(=O)Cn1c2cc(OC)ccc2c2ccnc(CC)c21 [AnnH88, Ethyl 2-(1-ethyl-7-methoxy-9H-pyrido[3,4-b]indol-9-yl)acetate]
- remaining activity at 1 µM [1, 3]: 52%
- remaining activity at 1 µM [2, 3]: 47%
- remaining activity at 1 µM (human recombinant MAO-A; [3]): 137%

Compound: CCOC(=O)Cn1c2cc(OC)ccc2c2ccnc(C)c21 [AnnH12, Ethyl 2-(7-methoxy-1-methyl-9H-pyrido[3,4-b]indol-9-yl)acetate]
- remaining activity at 1 µM [1, 3]: 45%
- remaining activity at 1 µM [2, 3]: 30%
- remaining activity at 1 µM (human recombinant MAO-A; [3]): 101%

Compound: 7-Methoxy-1-methyl-9-(prop-2-yn-1-yl)-9H-pyrido[3,4-b]indole [AnnH70]
- CLK1 residual activity [1, 3]: 17 *** %
- DYRK1A residual activity [2, 3]: 6%
- MAO-A residual activity (human recombinant MAO-A; [3]): 18%

Compound: COc1ccc(Cn2c3cc(OC)ccc3c3ccnc(C)c32)cc1 [AnnH35, 7-Methoxy-9-(4-methoxybenzyl)-1-methyl-9H-pyrido[3,4-b]indole]
- remaining activity at 1 µM [1, 3]: 80%
- remaining activity at 1 µM [2, 3]: 100%
- remaining activity at 1 µM (human recombinant MAO-A; [3]): 128%

Compound: COc1ccc2c(c1)[nH]c1c(C)cccc12 [AnnHOG3, 7-Methoxy-1-methyl-9H-carbazole]
- remaining activity at 1 µM [1, 3]: 97%
- remaining activity at 1 µM [2, 3]: 71%
- remaining activity at 1 µM (human recombinant MAO-A; [3]): 100%

Compound: Cc1nccc2c1[nH]c1c(Cl)c(Cl)ccc12 [AnnH63, 7,8-Dichloro-1-methyl-9H-pyrido[3,4-b]indole]
- remaining activity at 1 µM [1, 3]: 26%
- remaining activity at 1 µM [2, 3]: 3%
- remaining activity at 1 µM (human recombinant MAO-A; [3]): 32%

Compound: COc1ccc2c(c1)/C(=C\C#N)c1c-2ccnc1C [AnnHT5, (2E)-(7-Methoxy-1-methyl-9H-indeno[2,1c]pyridin-9-ylidene)ethanenitrile]
- remaining activity at 1 µM [1, 3]: 7%
- remaining activity at 1 µM [2, 3]: 35%
- remaining activity at 1 µM (human recombinant MAO-A; [3]): 65%

Compound: COc1ccc2c3ccnc(C)c3n(CC=C(C)C)c2c1 [AnnH73, 7-Methoxy-1-methyl-9-(3-methylbut-2-en-1-yl)-9H-pyrido[3,4-b]indole]
- remaining activity at 1 µM [1]: 2%
- remaining activity at 1 µM [2]: 6%
- remaining activity at 1 µM (human recombinant MAO-A): 52%

Compound: COc1ccc2c3ccnc(C)c3n(Cc3ccc4ccccc4c3)c2c1 [AnnH39, 7-Methoxy-1-methyl-9-(2-naphthylmethyl)-9H-pyrido[3,4-b]indole]
- remaining activity at 1 µM [1, 3]: 84%
- remaining activity at 1 µM [2, 3]: 91%
- remaining activity at 1 µM (human recombinant MAO-A; [3]): 125%

Compound: COc1ccc2c3ccnc(C)c3n(CCOc3ccccc3)c2c1 [AnnH40, 7-Methoxy-1-methyl-9-(2-phenoxyethyl)-9H-pyrido[3,4-b]indole]
- remaining activity at 1 µM [1, 3]: 37%
- remaining activity at 1 µM [2, 3]: 40%
- remaining activity at 1 µM (human recombinant MAO-A; [3]): 30%

Compound: C#CCn1c2cc(OC)ccc2c2ccnc(C)c21 [AnnH44, 7-Methoxy-1-methyl-9-(prop-2-yn-1-yl)-9H-pyrido[3,4-b]indole]
- remaining activity at 1 µM [1, 3]: 17%
- remaining activity at 1 µM [2, 3]: 2%
- remaining activity at 1 µM (human recombinant MAO-A; [3]): 22%

Compound: C#CCn1c2cc(OC)ccc2c2ccnc(Cl)c21 [AnnH74, 1-Chloro-7-methoxy-9-(prop-2-yn-1-yl)-9H-pyrido[3,4-b]indole]
- remaining activity at 1 µM [1, 3]: 46%
- remaining activity at 1 µM [2, 3]: 12%
- remaining activity at 1 µM (human recombinant MAO-A; [3]): 112%

Compound: Cc1nccc2c3ccc(Cl)c(Cl)c3n(CC#N)c12 [AnnH69, 2-(7,8-Dichloro-1-methyl-9H-pyrido[3,4-b]indol-9-yl)acetonitrile]
- remaining activity at 1 µM [1]: 33%
- remaining activity at 1 µM [2]: 17%
- remaining activity at 1 µM (human recombinant MAO-A): 101%

Compound: COc1ccc2c3ccnc(C)c3n(C(C)=O)c2c1 [AnnH59, 1-(7-Methoxy-1-methyl-9H-pyrido[3,4-b]indol-9-yl)ethan-1-one]
- remaining activity at 1 µM [1, 3]: 15%
- remaining activity at 1 µM [2, 3]: 30%
- remaining activity at 1 µM (human recombinant MAO-A; [3]): 19%

Compound: CCOC(=O)Cn1c2cc(OC)ccc2c2ccnc(Cl)c21 [AnnH76, Ethyl 2-(1-Chloro-7-methoxy-9H-pyrido[3,4-b]indol-9-yl)acetate]
- remaining activity at 1 µM [1, 3]: 96%
- remaining activity at 1 µM [2, 3]: 35%
- remaining activity at 1 µM (human recombinant MAO-A; [3]): 112%

Compound: COc1ccc2c3ccnc(C)c3n(Cc3ccncc3)c2c1 [AnnH36, 7-Methoxy-1-methyl-9-(pyridin-4-yl-methyl)-9H-pyrido[3,4-b]indole]
- remaining activity at 1 µM [1, 3]: 62%
- remaining activity at 1 µM [2, 3]: 59%
- remaining activity at 1 µM (human recombinant MAO-A; [3]): 19%
